Measured values reported in a melting point compilation (Tetko et al.; mined from patent text by program, amines drawn as free bases though some values may be those of a salt).

SMILES | melting point [°C]
C=CCCC(=O)N1CCc2nnc(N(C)N)cc2C1 | 128 to 130
Cc1ccsc1C(=O)C(=CN(C)C)c1ccc(C(F)(F)F)cc1[N+](=O)[O-] | 118
CC(C)(C)NC(=O)[C@@H]1C[C@H](Cl)CN1C(=O)[C@@H](O)[C@H](Cc1ccccc1)NC(=O)[C@H](CC(N)=O)NC(=O)c1cnc2cc([N+](=O)[O-])ccc2n1 | 153 to 156
COc1ccc2cc(-c3cn([C@H]4CN5CCC4CC5)nn3)ccc2c1 | 186
CC(NC(Nc1cc(C(F)(F)F)cc(C(F)(F)F)c1)=C(C#N)S(=O)(=O)C(C)C)C(C)(C)C (stereo not drawn) | 177 to 180
CC(C)(C)OC(=O)C[C@H](NS(=O)(=O)c1ccc2ccccc2c1)C(=O)O | 141
NC(=Nc1ccc(CNC(=O)CCCCC2CCSS2)cc1)c1cccs1 (stereo not drawn) | 152
CC(C)C(=O)NC(c1ccc(C=O)cc1)C(F)(F)F (stereo not drawn) | 132 to 133
CC1(C)Nc2ncc(-c3ccc(C(=O)N4CCC[C@H]4CN4CCCC4)cc3)cc2N(Cc2cc(F)ccc2F)C1=O | 171 to 172
COC(CN(C)C(=O)Nc1nnc(C(C)Oc2ccc(Cl)c(Cl)c2)s1)OC (stereo not drawn) | 124 to 127
CC(C)(N)Cc1c[nH]c2ccc(Cl)cc12 | 156 to 158
CCOC(=O)c1cc2cccc(N(C)C(=O)c3cccs3)c2[nH]1 | 193
FC(F)(F)Sc1c(Cl)c(Cl)c(CBr)c(Cl)c1Cl | 117 to 118
Nc1ccc(-c2ccc(N)cc2Br)c(Br)c1 | 151 to 153
COC(=O)c1ccc(Cc2csc3ccc(NC(=O)OC4CCCC4)cc23)c(OC)c1 | 163 to 164
COc1ccc(CCN)cc1S(N)(=O)=O | 164 to 167
COC(=O)CC(=O)C[C@@H]1[C@@H](N2C(=O)c3ccccc3C2=O)C(=O)N1C(=O)C(=O)OC | 130 to 132
O=C1c2c(O)cccc2C(C(=O)C2CCCCC2)c2cccc(O)c21 | 220
COc1ccc(C(=O)CCC(=O)O)cc1CO | 217 to 218
CN1CCC(c2ccccc2)(C(C)(C)O)CC1 | 146 to 147
CCCCNC(=O)[C@@H](C[C@H](O)[C@H](CC1CCCCC1)NC(=O)[C@H](Cc1cscn1)NC(=O)OC(C)(C)C)C(C)C | 201 to 203
C#CCn1ccc(CO)c1C(F)(F)F | 63
O=C(NC1C2CC3CC(C2)CC1C3)c1cc(-c2ccc(Cl)cc2)n(Cc2ccc(Cl)cc2Cl)n1 (stereo not drawn) | 154

Other lines, results leading:

melting point [°C] | SMILES
207 to 211 | CNC(=O)c1ccc(C=CC(=O)NCC(=O)N(C)c2ccc(Cl)c(CO)c2Cl)cc1
161 to 167 | CC1Cc2cc(S(N)(=O)=O)cc(C(=O)NCC3CCCN3Cc3ccccc3)c2O1 (stereo not drawn)
189 to 191 | CCc1cc(C(=O)O)c(Nc2ccccc2[N+](=O)[O-])s1
133 to 135 | Cn1c(N2CC3CC2CN3C(=O)c2ccccc2)nc(-c2ccncn2)cc1=O (stereo not drawn)
276 | Nc1nc(-c2ccnc(-c3ccc(N4CCOCC4)cc3)c2)c(-c2ccccn2)s1
58 to 59 | O=C(CCO)NCc1ccc2ccn(C3CCN(CCc4ccccc4F)CC3)c2c1
131 | CC(C)(C#N)c1cc(CSc2ccc(O)c(Cl)c2)cc(Cn2cncn2)c1
80 to 81.5 | CCNC(=O)NC(=O)Nc1ccccc1
218 | O=C1CC(C(=O)O)CC(O)=C1N=Nc1ccccc1 (stereo not drawn)
236 to 237 | Cc1ccnc(C(=O)c2[nH]c3ccc(Cl)cc3c2CC(=O)O)c1C
211 to 212 | C=CCc1c(O)cc(Cl)c2c(-c3ccccc3F)noc12
149 to 150 | Cc1nc(-n2ccc(CCc3ccccc3)cc2=O)sc1C(=O)NCc1ccccc1
315 | N#Cc1ccc2c(c1)[nH]c(=S)n2NC(=O)c1ccc(Cl)c(S(N)(=O)=O)c1
297 | O=C(CCc1ccccc1)Nc1ccc(C(=O)NN=C2C(=O)Nc3ccc(I)cc32)cc1
101 to 103 | COCCOc1ccc(CCCN2C(=O)c3ccccc3C2=O)c(Oc2ncc(C(F)(F)F)cc2Cl)c1
